Data published in ChEMBL document CHEMBL4261595, “Discovery of 3-(4-sulfamoylnaphthyl)pyrazolo[1,5-a]pyrimidines as potent and selective ALK2 inhibitors” (Bioorg Med Chem Lett, 2018).
≈ marks a conversion by molar mass, not a printed value.

What was measured:
[1] = Permeability of the compound by PAMPA; type: ADME; settings: read-out: permeability
[2] = rat, microsomes
physchem = settings: aqueous, pH 7.4
[3] = AUC (0 to infinity) in C57BL/6 mouse at 3 mg/kg, iv; type: ADME, organism-based; set-up: dose 3 mg/kg, time infinity, route intravenous; settings: in vivo
[4] = Half life in C57BL/6 mouse at 3 mg/kg, iv; type: ADME, organism-based; settings: in vivo
[5] = Clearance in C57BL/6 mouse plasma at 3 mg/kg, iv; type: ADME, organism-based
[6] = Volume of distribution at steady state in C57BL/6 mouse at 3 mg/kg, iv; type: ADME, organism-based; settings: in vivo, read-out: Vdss
[7] = AUC (0 to infinity) in C57BL/6 mouse at 3 mg/kg, po; type: ADME, organism-based; set-up: dose 3 mg/kg, time infinity, route oral; settings: in vivo
[8] = Half life in C57BL/6 mouse at 3 mg/kg, po; type: ADME, organism-based; settings: in vivo
[9] = Cmax in C57BL/6 mouse at 3 mg/kg, po; type: ADME, organism-based; set-up: dose 3 mg/kg, route oral; settings: in vivo
[10] = Oral bioavailability in C57BL/6 mouse at 3 mg/kg; type: ADME, organism-based; settings: in vivo

Row | Structure (SMILES) | Papp [1] [×10⁻⁶ cm/s] | t1/2 [2] [min] | solubility (physchem) [µg/mL] | other results
1 | NS(=O)(=O)c1ccc(-c2cnn3cc(-c4ccc(C5CCNCC5)cc4)cnc23)c2ccccc12 | 78.6 | > 30 | < 1 | –
2 | CC(C)(CN1CCCCC1)Oc1ccc(-c2cnc3c(-c4ccc(S(N)(=O)=O)c5ccccc45)cnn3c2)cc1 | – | 6.1 | < 1 | –
3 | NC1(c2ccc(-c3cnc4c(-c5ccc(S(N)(=O)=O)c6ccccc56)cnn4c3)cc2)CCC1 | – | – | < 1 | –
4 | CN(C)CCOc1ccc(-c2cnc3c(-c4ccc(S(N)(=O)=O)c5ccccc45)cnn3c2)cn1 | 8.8 | 9.4 | < 1 | –
5 | NS(=O)(=O)c1ccc(-c2cnn3cc(-c4ccc(N5CCNCC5)nc4)cnc23)c2ccccc12 | 8.3 | > 30 | 1.4 (≈ 2.88 µM) | –
6 | NS(=O)(=O)c1ccc(-c2cnn3cc(-c4ccc(CN5CCCC5)cc4)cnc23)c2ccccc12 | 467 | 21.9 | 8 (≈ 16.5 µM) | –
7 | CC(C)(N)c1ccc(-c2cnc3c(-c4ccc(S(N)(=O)=O)c5ccccc45)cnn3c2)cc1 | 9.4 | > 30 | 10.6 (≈ 23.2 µM) | –
8 | CC(c1ccc(-c2cnc3c(-c4ccc(S(N)(=O)=O)c5ccccc45)cnn3c2)cc1)N1CCCC1 (stereo not given) | – | 22.8 | 7 (≈ 14.1 µM) | AUC(0-inf) [3]: 3220 ng·h/mL; half-life [4]: 210 min; clearance [5]: 16 mL/min/kg; Vd [6]: 4.6 L/kg; AUC(0-inf) [7]: 782 ng·h/mL; half-life [8]: 258 min; Cmax [9]: 67 ng/mL; bioavailability [10]: 24%
9 | NS(=O)(=O)c1ccc(-c2cnn3cc(-c4ccc(OCCN5CCCC5)cc4)cnc23)c2ccccc12 | 317 | > 30 | 33 (≈ 64.2 µM) | –
10 | NS(=O)(=O)c1ccc(-c2cnn3cc(-c4ccc(OCCN5CCCCC5)nc4)cnc23)c2ccccc12 | 365 | 20.9 | < 1 | –
11 | CC(N)c1ccc(-c2cnc3c(-c4ccc(S(N)(=O)=O)c5ccccc45)cnn3c2)cc1 (stereo not given) | – | – | 7.6 (≈ 17.1 µM) | –
